Data from PubChem BioAssay AID2060609 (Molecular Pharmacology Branch, DTP, NCI, 2025).

Test system: 855422-203-R-J1-PDC complex spheroids, viability
Assay: Anticancer human tumor 855422-203-R-J1-PDC patient-derived bladder carcinoma cell line growth inhibition [CLK]
Settings: for IC50: curve of first compound; for viability, T/C: stronger effect = lower value
Source text: A high-throughput screen of multi-cell type tumor spheroids was designed to identify active combinations of […] and targeted small molecules. Complex spheroids include a stromal component modeled by human endothelial cells (HUVEC) and fibroblasts modeled by human mesenchymal stem cells (MSCs). The concentration ranges selected for each drug and investigational agent were based upon clinically achievable concentrations if the clinical Cmax of the agent was known.
Compounds. The drugs and investigational agents: cirtuvivint (SM08502; NSC835563), CC-671 (NSC850746), vemurafenib (NSC761431), tapotoclax (NSC804041), sotorasib (NSC818433), adagrasib (NSC831453), MRTX-1133 (NSC836407), BAY2416964 (NSC825713), copanlisib (NSC816437), inavolisib (NSC800729), abemaciclib (NSC768073), osimertinib (NSC779217), entinostat (NSC756642), eltanexor (KPT-8602, NSC794443), venetoclax (NSC766270), ceralasertib (NSC777638), bortezomib (NSC756655), olaparib (NSC753686), talazoparib (NSC767125), alisertib (NSC759677), peposertib (NSC802822), gemcitabine (NSC613327), 5-fluorouracil (NSC19893), SN-38 (NSC673596), oxaliplatin (NSC266046), paclitaxel (NSC125973), and doxorubicin (NSC123127), were obtained from the National Cancer Institute (NCI) Developmental Therapeutics Program Chemical Repository. The FDA-approved anticancer drug set is available from the Developmental Therapeutics Program at https://dtp.cancer.gov/organization/dscb/obtaining/available plates.htm. […] The stock solutions were prepared in dimethyl sulfoxide (DMSO, Sigma-Aldrich, St. Louis, MO, cat. D2650), except for the platinum complexes which were prepared in saline (Quality Biological, Gaithersburg, MD, cat. 114-055-101), at 800-fold the tested concentration and stored at -70 degrees C prior to their use. All drugs and investigational agents were tested over a range starting from a high concentration at or near the clinical Cmax and decreasing in half-log increments. If the clinical Cmax for an agent had not been determined, the highest concentration tested was 10 microM.
Cell Culture. All cells were maintained in an incubator at 37 degrees C and 5% CO2 with 95% humidity. The PDC lines were cultured according to standard operating procedures established by the NCI PDMR. Briefly, all PDCs were thawed and cultured in Matrigel-coated flasks prepared with a working solution of 1X Ham's F-12 nutrient mix, without supplementation (Invitrogen, Waltham, MA, cat. 11765054), 100 U/mL penicillin-streptomycin (Invitrogen, cat. 15140122), and 2.5% Matrigel (Corning Inc., Corning, NY, cat. 354248) for the first three passages. The 947758-054-R-J2-PDC line was cultured in 6B/Colon 1A media, which includes advanced DMEM/F-12 (Thermo Fisher Scientific, cat. 12634028), 10 mM HEPES (Thermo Fisher Scientific, cat. 15630080), 1X GlutaMAX supplement (Thermo Fisher Scientific, cat. 35050061), 0.1 mg/mL primocin (InvivoGen, cat. ant-pm-2), 10% defined fetal bovine serum, heat inactivated (HyClone Laboratories Inc., cat. SH30070.03HI), 1.25 mM N-Acetyl-L-cysteine (Sigma-Aldrich, cat. A9165), 10 mM nicotinamide (Sigma-Aldrich, cat. N0636), 1X B-27 supplement (Thermo Fisher Scientific, cat. 17504044), 1X N-2 supplement (Thermo Fisher Scientific, cat. 17502048), and 10 microM Y-27632 dihydrochloride (Tocris Bioscience, cat. 1254). The 876862-298-R-J1-PDC was cultured in 6E media, which includes all 6B/Colon 1A media components plus 50% L-WRN conditioned media (ATCC, cat. CRL-3276), 50 ng/mL recombinant human EGF recombinant protein (hEGF; Thermo Fisher Scientific, cat. PHG0311), 10 ng/mL recombinant human fibroblast growth factor 10 (hGFG-10; PeproTech, cat. 100-26), 1 ng/mL recombinant human fibroblast growth factor 2 (hFGF-2; PeproTech, cat. 100-18B), and 1 µM prostaglandin E2 (PGE2; Tocris, cat. 2296). The 227483-062-R1-J1-PDC line was cultured in Panc media, containing all 6E components except hFGF-2, with the addition of 500 nM SB-431542 (Selleckchem, cat. S1067) and 10 nM gastrin (Tocris, cat. 3006). […]
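Also: spheroids exposed to drugs for seven days before readout.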
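For viability, T/C in this document: 100% = DMSO vehicle control wells.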

In the case of `CC(Nc1ccc2c(c1)OCCn1cc(N3C(=O)OCC3C(F)F)nc1-2)C(N)=O` (configuration not stated) + CNC(=O)c1ccc(Nc2nc(OC3CCCC3)c3c(-c4ccc5nc(C)oc5c4)c[nH]c3n2)c(OC)c1, the IC50 (second compound 0.0316 µM) is reported as 161 nM, the IC50 (second compound 0.1 µM) is reported as 181 nM and the IC50 (second compound 0.316 µM) is reported as < 31.6 nM. For the same molecule, the IC50 (second compound 1 µM) was < 31.6 nM, the IC50 (second compound 3.16 µM) was < 31.6 nM and the IC50 (second compound 10 µM) was < 31.6 nM. The viability, T/C (second compound 0.0316 µM, first compound 0.0316 µM) was 80.5%, the viability, T/C (second compound 0.0316 µM, first compound 0.1 µM) was 59.6% and the viability, T/C (second compound 0.0316 µM, first compound 0.316 µM) was 36.1%. For the same molecule, the viability, T/C (second compound 0.0316 µM, first compound 1 µM) was 26.3%, the viability, T/C (second compound 0.0316 µM, first compound 3.16 µM) was 19.7% and the viability, T/C (second compound 0.0316 µM, first compound 10 µM) was 11.1%. It also gave a viability, T/C (second compound 0.1 µM, first compound 0.0316 µM) of 61.9%, a viability, T/C (second compound 0.1 µM, first compound 0.1 µM) of 58.6% and a viability, T/C (second compound 0.1 µM, first compound 0.316 µM) of 42.6%. For the same molecule, the viability, T/C (second compound 0.1 µM, first compound 1 µM) was 27.5%, the viability, T/C (second compound 0.1 µM, first compound 3.16 µM) was 19.7% and the viability, T/C (second compound 0.1 µM, first compound 10 µM) was 12%. For the same molecule, the viability, T/C (second compound 0.316 µM, first compound 0.0316 µM) was 15.8%, the viability, T/C (second compound 0.316 µM, first compound 0.1 µM) was 15.3% and the viability, T/C (second compound 0.316 µM, first compound 0.316 µM) was 13.8%. The viability, T/C (second compound 0.316 µM, first compound 1 µM) was 13.4%, the viability, T/C (second compound 0.316 µM, first compound 3.16 µM) was 9.9% and the viability, T/C (second compound 0.316 µM, first compound 10 µM) was 6.79%. The viability, T/C (second compound 1 µM, first compound 0.0316 µM) was 16.9%, the viability, T/C (second compound 1 µM, first compound 0.1 µM) was 16.6% and the viability, T/C (second compound 1 µM, first compound 0.316 µM) was 11.4%. It also gave a viability, T/C (second compound 1 µM, first compound 1 µM) of 9.1%, a viability, T/C (second compound 1 µM, first compound 3.16 µM) of 8.21% and a viability, T/C (second compound 1 µM, first compound 10 µM) of 4.44%. It also gave a viability, T/C (second compound 3.16 µM, first compound 0.0316 µM) of 21.2%, a viability, T/C (second compound 3.16 µM, first compound 0.1 µM) of 15.8% and a viability, T/C (second compound 3.16 µM, first compound 0.316 µM) of 9.09%. It also gave a viability, T/C (second compound 3.16 µM, first compound 1 µM) of 9.68%, a viability, T/C (second compound 3.16 µM, first compound 3.16 µM) of 8.52% and a viability, T/C (second compound 3.16 µM, first compound 10 µM) of 5.74%. It also gave a viability, T/C (second compound 10 µM, first compound 0.0316 µM) of 15.8%, a viability, T/C (second compound 10 µM, first compound 0.1 µM) of 12.1% and a viability, T/C (second compound 10 µM, first compound 0.316 µM) of 10.3%. It also gave a viability, T/C (second compound 10 µM, first compound 1 µM) of 10.3%, a viability, T/C (second compound 10 µM, first compound 3.16 µM) of 7.09% and a viability, T/C (second compound 10 µM, first compound 10 µM) of 3.99%.
